The target in the experiment is T1, AhR (Homo sapiens, UniProt P35869).
T1 sequence (P35869 11-848): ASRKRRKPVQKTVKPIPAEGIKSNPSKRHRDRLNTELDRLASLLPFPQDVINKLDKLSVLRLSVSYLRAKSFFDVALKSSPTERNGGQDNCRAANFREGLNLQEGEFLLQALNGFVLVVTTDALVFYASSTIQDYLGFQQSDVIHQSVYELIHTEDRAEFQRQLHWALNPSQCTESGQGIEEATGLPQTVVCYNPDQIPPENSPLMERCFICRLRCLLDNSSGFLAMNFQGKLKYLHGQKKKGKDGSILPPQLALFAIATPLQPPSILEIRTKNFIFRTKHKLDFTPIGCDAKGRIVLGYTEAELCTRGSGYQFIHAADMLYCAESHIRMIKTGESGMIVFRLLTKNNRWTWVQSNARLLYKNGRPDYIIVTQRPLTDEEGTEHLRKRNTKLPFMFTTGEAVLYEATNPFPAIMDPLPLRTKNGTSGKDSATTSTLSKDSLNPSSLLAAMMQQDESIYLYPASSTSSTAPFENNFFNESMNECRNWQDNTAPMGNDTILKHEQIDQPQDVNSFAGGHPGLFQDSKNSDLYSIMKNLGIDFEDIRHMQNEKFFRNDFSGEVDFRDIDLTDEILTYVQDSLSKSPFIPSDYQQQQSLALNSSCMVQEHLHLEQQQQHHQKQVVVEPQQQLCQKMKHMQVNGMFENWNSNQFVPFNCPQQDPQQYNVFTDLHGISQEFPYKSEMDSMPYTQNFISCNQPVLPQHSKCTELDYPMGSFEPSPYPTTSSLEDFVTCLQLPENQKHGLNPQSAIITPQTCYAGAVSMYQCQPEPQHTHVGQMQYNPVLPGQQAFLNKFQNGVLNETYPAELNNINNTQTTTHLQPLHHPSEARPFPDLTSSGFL
Kind of experiment: In Vitro Assay 1: XRE-luciferase reporter assay, antagonism in human cell line (HepG2). The note with it: Assay 1: AhR-Luc Human Antagonism (IC50, nM), values marked *: kynurenine 50 μM, 6 hours. On the technique in general: A reporter such as luciferase makes a cellular process visible.

Drawing on patent US20230150970A1, “AMINOPYRIMIDINE DERIVATIVES AND THEIR USE AS ARYL HYDROCARBON RECEPTOR MODULATORS” (DONG-A ST CO., LTD., priority 2020, published 2023), this text covers IC50 for 35 molecules.

In general, IC50 refers to the concentration needed to halve the response being measured. Read a low IC50 as inhibition by little substance.

Molecules are shown by their SMILES.

`O[C@@H]1CCCC[C@H]1Nc1cc(-c2ccc(Cl)cc2)nc(-c2cccnc2)n1` (relative stereo) [Example 35, trans-2-((6-(4-chlorophenyl)-2-(pyridin-3-yl)pyrimidin-4-yl)amino)cyclohexan-1-ol] gave an IC50 of over 1000 nM.
With `O[C@@H]1CCC[C@H]1Nc1cc(-c2ccc(Cl)cc2)nc(-c2cccnc2)n1` (relative stereo) [Example 68, trans-2-((6-(4-chlorophenyl)-2-(pyridin-3-yl)pyrimidin-4-yl)amino)cyclopentan-1-ol] the figure was 10 to 100 nM.
On to `C[C@@H]1CN(c2cc(-c3ccc(Cl)cc3)nc(-c3cccnc3)n2)[C@@H](C)CN1` (relative stereo) [Example 103, Trans-4-(4-chlorophenyl)-6-(2,5-dimethylpiperazin-1-yl)-2-(pyridin-3-yl)pyrimidine], for which the IC50 is over 1000 nM.
`Clc1ccc(-c2cc(N[C@@H]3COC[C@H]3N3CCCC3)nc(-c3cccnc3)n2)cc1` (relative stereo) [Example 201, Trans-6-(4-chlorophenyl)-2-(pyridin-3-yl)-N-(4-(pyrrolidin-1-yl)tetrahydrofuran-3-yl)pyrimidin-4-amine] registered a half-maximal inhibitory concentration (IC50) of over 1000 nM.
Under `CC(C)N1C[C@@H](O)[C@H](Nc2cc(-c3ccc(Cl)cc3)nc(-c3cccnc3)n2)C1` (relative stereo) [Example 209, Trans-4-((6-(4-chlorophenyl)-2-(pyridin-3-yl)pyrimidin-4-yl)amino)-1-isopropylpyrrolidin-3-ol] stands over 1000 nM.
Take `C[C@@H](CO)Nc1cc(-c2ccc(Cl)cc2)nc(-c2cccnc2)n1` [Example 2, (S)-2-((6-(4-chlorophenyl)-2-(pyridin-3-yl)pyrimidin-4-yl)amino)propan-1-ol]: the half-inhibitory concentration (IC50) lay in the range of 100 to 1000 nM.
`C[C@@H](CO)Nc1nc(-c2ccc(Cl)cc2)cc(-c2cccnc2)n1` [Example 3, (S)-2-((4-(4-chlorophenyl)-6-(pyridin-3-yl)pyrimidin-2-yl)amino)propan-1-ol]: the IC50 lay in the range of 100 to 1000 nM.
In turn, `CC(C)(CO)Nc1cc(-c2ccc(Cl)cc2)nc(-c2cccnc2)n1` [Example 4, 2-((6-(4-chlorophenyl)-2-(pyridin-3-yl)pyrimidin-4-yl)amino)-2-methylpropan-1-ol] registered an IC50 of 100 to 1000 nM.
Turning to `CC(C)(CO)Nc1nc(-c2ccc(Cl)cc2)cc(-c2cccnc2)n1` [Example 5, 2-((4-(4-chlorophenyl)-6-(pyridin-3-yl)pyrimidin-2-yl)amino)-2-methylpropan-1-ol], the concentration for half-maximal inhibition (IC50) was over 1000 nM.
`OCCNc1cc(-c2ccc(Cl)cc2)nc(-c2cccnc2)n1` [Example 6, 2-((6-(4-chlorophenyl)-2-(pyridin-3-yl)pyrimidin-4-yl)amino)ethan-1-ol] yielded a half-maximal inhibitory concentration (IC50) of 100 to 1000 nM.
`OCCCNc1cc(-c2ccc(Cl)cc2)nc(-c2cccnc2)n1` [Example 7, 3-((6-(4-chlorophenyl)-2-(pyridin-3-yl)pyrimidin-4-yl)amino)propan-1-ol] yielded a 50% inhibitory concentration (IC50) of over 1000 nM.
With `C[C@H](O)CNc1cc(-c2ccc(Cl)cc2)nc(-c2cccnc2)n1` [Example 8, (S)-1-((6-(4-chlorophenyl)-2-(pyridin-3-yl)pyrimidin-4-yl)amino)propan-2-ol] the figure was 100 to 1000 nM; with `C[C@@H](O)CNc1cc(-c2ccc(Cl)cc2)nc(-c2cccnc2)n1` [Example 9, (R)-1-((6-(4-chlorophenyl)-2-(pyridin-3-yl)pyrimidin-4-yl)amino)propan-2-ol], 100 to 1000 nM; with `OCC(O)CNc1cc(-c2ccc(Cl)cc2)nc(-c2cccnc2)n1` (centres unmarked) [Example 10, 3-((6-(4-chlorophenyl)-2-(pyridin-3-yl)pyrimidin-4-yl)amino)propane-1,2-diol], 100 to 1000 nM.
In turn, `C[C@H](CO)Nc1cc(-c2ccc(Cl)cc2)nc(-c2cccnc2)n1` [Example 11, (R)-2-((6-(4-chlorophenyl)-2-(pyridin-3-yl)pyrimidin-4-yl)amino)propan-1-ol] showed an IC50 of 10 to 100 nM.
`CC(C)C(CO)Nc1cc(-c2ccc(Cl)cc2)nc(-c2cccnc2)n1` (centres unmarked) [Example 12, 2-((6-(4-chlorophenyl)-2-(pyridin-3-yl)pyrimidin-4-yl)amino)-3-methylbutan-1-ol] returned an IC50 of 100 to 1000 nM.
Consider `CC(C)[C@@H](CO)Nc1cc(-c2ccc(Cl)cc2)nc(-c2cccnc2)n1` [Example 13, (S)-2-((6-(4-chlorophenyl)-2-(pyridin-3-yl)pyrimidin-4-yl)amino)-3-methylbutan-1-ol], for which the IC50 was over 1000 nM.
Under `CC(C)[C@H](CO)Nc1cc(-c2ccc(Cl)cc2)nc(-c2cccnc2)n1` [Example 14, (R)-2-((6-(4-chlorophenyl)-2-(pyridin-3-yl)pyrimidin-4-yl)amino)-3-methylbutan-1-ol] stands over 1000 nM; under `CCC(CO)Nc1cc(-c2ccc(Cl)cc2)nc(-c2cccnc2)n1` (centres unmarked) [Example 15, 2-((6-(4-chlorophenyl)-2-(pyridin-3-yl)pyrimidin-4-yl)amino)butan-1-ol], over 1000 nM; under `OCC(CO)Nc1cc(-c2ccc(Cl)cc2)nc(-c2cccnc2)n1` [Example 16, 2-((6-(4-chlorophenyl)-2-(pyridin-3-yl)pyrimidin-4-yl)amino)propane-1,3-diol], over 1000 nM.
In turn, `O[C@@H](CNc1cc(-c2ccc(Cl)cc2)nc(-c2cccnc2)n1)c1ccccc1` [Example 17, (R)-2-((6-(4-chlorophenyl)-2-(pyridin-3-yl)pyrimidin-4-yl)amino)-1-phenylethan-1-ol] came in with a 50% inhibitory concentration (IC50) of over 1000 nM.
Under `O[C@H](CNc1cc(-c2ccc(Cl)cc2)nc(-c2cccnc2)n1)c1ccccc1` [Example 18, (S)-2-((6-(4-chlorophenyl)-2-(pyridin-3-yl)pyrimidin-4-yl)amino)-1-phenylethan-1-ol] stands over 1000 nM; under `Clc1ccc(-c2cc(NCC3CCOCC3)nc(-c3cccnc3)n2)cc1` [Example 19, 6-(4-chlorophenyl)-2-(pyridin-3-yl)-N-((tetrahydro-2H-pyran-4-yl)methyl)pyrimidin-4-amine], 100 to 1000 nM; under `CN(C)CCCNc1cc(-c2ccc(Cl)cc2)nc(-c2cccnc2)n1` [Example 20, N^1-(6-(4-chlorophenyl)-2-(pyridin-3-yl)pyrimidin-4-yl)-N^3,N^3-dimethylpropane-1,3-diamine], over 1000 nM.
Molecule `CCNc1cc(-c2ccc(Cl)cc2)nc(-c2cccnc2)n1` [Example 21, 6-(4-chlorophenyl)-N-ethyl-2-(pyridin-3-yl)pyrimidin-4-amine] displayed an IC50 of 100 to 1000 nM.
For `CCCNc1cc(-c2ccc(Cl)cc2)nc(-c2cccnc2)n1` [Example 22, 6-(4-chlorophenyl)-N-propyl-2-(pyridin-3-yl)pyrimidin-4-amine], the 50% inhibitory concentration (IC50) was 100 to 1000 nM.
Molecule `CCCCNc1cc(-c2ccc(Cl)cc2)nc(-c2cccnc2)n1` [Example 23, N-butyl-6-(4-chlorophenyl)-2-(pyridin-3-yl)pyrimidin-4-amine] displayed an IC50 of over 1000 nM.
With `CCC(O)CNc1cc(-c2ccc(Cl)cc2)nc(-c2cccnc2)n1` (centres unmarked) [Example 24, 1-((6-(4-chlorophenyl)-2-(pyridin-3-yl)pyrimidin-4-yl)amino)butan-2-ol] the figure was 100 to 1000 nM.
`Clc1ccc(-c2cc(NCC3CC3)nc(-c3cccnc3)n2)cc1` [Example 25, 6-(4-chlorophenyl)-N-(cyclopropylmethyl)-2-(pyridin-3-yl)pyrimidin-4-amine] had an IC50 of over 1000 nM.
In turn, `Clc1ccc(-c2cc(NC3CCCC3)nc(-c3cccnc3)n2)cc1` [Example 26, 6-(4-chlorophenyl)-N-cyclopentyl-2-(pyridin-3-yl)pyrimidin-4-amine] displayed an IC50 of over 1000 nM.
The molecule `CC(C)(C)Nc1cc(-c2ccc(Cl)cc2)nc(-c2cccnc2)n1` [Example 28, N-(tert-butyl)-6-(4-chlorophenyl)-2-(pyridin-3-yl)pyrimidin-4-amine] came in with an IC50 of over 1000 nM.
With `O[C@@H]1CCC[C@H]1Nc1cc(-c2ccc(Cl)cc2)nc(-c2cccnc2)n1` [Example 29, (1R,2R)-2-((6-(4-chlorophenyl)-2-(pyridin-3-yl)pyrimidin-4-yl)amino)cyclopentan-1-ol] the figure was 10 to 100 nM; with `O[C@H]1CCC[C@H]1Nc1cc(-c2ccc(Cl)cc2)nc(-c2cccnc2)n1` [Example 30, (1S,2R)-2-((6-(4-chlorophenyl)-2-(pyridin-3-yl)pyrimidin-4-yl)amino)cyclopentan-1-ol], 10 to 100 nM.
For the molecule `Clc1ccc(-c2cc(NCc3ccccn3)nc(-c3cccnc3)n2)cc1` [Example 31, 6-(4-chlorophenyl)-N-(pyridin-2-ylmethyl)-2-(pyridin-3-yl)pyrimidin-4-amine], the IC50 lay in the range of 100 to 1000 nM.
`Clc1ccc(-c2cc(NCc3cccnc3)nc(-c3cccnc3)n2)cc1` [Example 32, 6-(4-chlorophenyl)-2-(pyridin-3-yl)-N-(pyridin-3-ylmethyl)pyrimidin-4-amine] had an IC50 of 100 to 1000 nM.
